In PubChem BioAssay (NCI):
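Results reflect a 48-hour exposure of cells in 96-well plates to compound at five concentrations. GI50 marks 50% less growth. The concentration for full growth arrest is given as TGI.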

Tests used:
Test in all cases: NCI anticancer screen, dose series, 48 h; in the data active means GI50 below about 0.43 µM; inactive means the rest
U251 CNS = tested on: U251 CNS
COLO 205 colon = tested on: COLO 205 colon
HCT-15 colon = tested on: HCT-15 colon
HOP-62 NSCLC = tested on: HOP-62 NSCLC
MALME-3M melanoma = tested on: MALME-3M melanoma
ACHN renal = tested on: ACHN renal
OVCAR-3 ovarian = tested on: OVCAR-3 ovarian
HT29 colon = tested on: HT29 colon
SF-295 CNS = tested on: SF-295 CNS
OVCAR-5 ovarian = tested on: OVCAR-5 ovarian
DU-145 prostate = tested on: DU-145 prostate
SN12C renal = tested on: SN12C renal
T-47D breast = tested on: T-47D breast
NCI-H460 lung = tested on: NCI-H460 lung
RXF 393 renal = tested on: RXF 393 renal
HS 578T breast = tested on: HS 578T breast
A498 renal = tested on: A498 renal
SK-MEL-2 melanoma = tested on: SK-MEL-2 melanoma
A549 NSCLC = tested on: A549 NSCLC
RPMI-8226 leukemia = tested on: RPMI-8226 leukemia
HCC-2998 colon = tested on: HCC-2998 colon
SF-539 CNS = tested on: SF-539 CNS
NCI/ADR-RES ovarian = tested on: NCI/ADR-RES ovarian
786-0 renal = tested on: 786-0 renal
SNB-75 CNS = tested on: SNB-75 CNS
OVCAR-4 ovarian = tested on: OVCAR-4 ovarian
PC-3 prostate = tested on: PC-3 prostate

CC(=O)Oc1cc(C(C)C)c(OCCN(C)C)cc1C
inactive: GI50 (COLO 205 colon) > 100 µM | GI50 (HCT-15 colon) > 100 µM | GI50 (HOP-62 NSCLC) > 100 µM | GI50 (MALME-3M melanoma) > 100 µM | GI50 (ACHN renal) > 100 µM | GI50 (OVCAR-3 ovarian) > 100 µM | GI50 (HT29 colon) > 100 µM | GI50 (SF-295 CNS) > 100 µM | GI50 (OVCAR-5 ovarian) > 100 µM | GI50 (DU-145 prostate) > 100 µM | GI50 (SN12C renal) > 100 µM | GI50 (T-47D breast) > 100 µM | GI50 (NCI-H460 lung) > 100 µM | GI50 (RXF 393 renal) > 100 µM | GI50 (HS 578T breast) > 100 µM | GI50 (A498 renal) > 100 µM | GI50 (SK-MEL-2 melanoma) > 100 µM | GI50 (A549 NSCLC) > 100 µM | GI50 (RPMI-8226 leukemia) > 100 µM | GI50 (HCC-2998 colon) > 100 µM | GI50 (SF-539 CNS) > 100 µM | GI50 (NCI/ADR-RES ovarian) > 100 µM | GI50 (786-0 renal) > 100 µM | GI50 (SNB-75 CNS) 50.9 µM | GI50 (OVCAR-4 ovarian) > 100 µM | GI50 (PC-3 prostate) > 100 µM
> 100 µM: TGI (U251 CNS) | TGI (COLO 205 colon) | TGI (HCT-15 colon) | TGI (HOP-62 NSCLC) | TGI (MALME-3M melanoma) | TGI (ACHN renal) | TGI (OVCAR-3 ovarian) | TGI (HT29 colon) | TGI (SF-295 CNS) | TGI (OVCAR-5 ovarian) | TGI (DU-145 prostate) | TGI (SN12C renal) | TGI (T-47D breast) | TGI (NCI-H460 lung) | TGI (RXF 393 renal) | TGI (HS 578T breast) | TGI (A498 renal) | TGI (SK-MEL-2 melanoma) | TGI (A549 NSCLC) | TGI (RPMI-8226 leukemia) | TGI (HCC-2998 colon) | TGI (SF-539 CNS) | TGI (NCI/ADR-RES ovarian) | TGI (786-0 renal) | TGI (SNB-75 CNS) | TGI (OVCAR-4 ovarian) | TGI (PC-3 prostate)
